# Measured values as given in ChEMBL document CHEMBL4007390, “Design, synthesis and biological evaluation of indolin-2-one-based derivatives as potent, selective and efficacious inhibitors of FMS-like tyrosine kinase3 (FLT3)” (Eur J Med Chem, 2017).
# pIC50: −log10 of the molar value.
# Experiments:
# [1] = target: Serine/threonine-protein kinase B-raf (Homo sapiens) (UniProt P15056); experiment: Inhibition of human BRAF at 0.1 uM relative to control
# [2] = target: Discoidin domain-containing receptor 2 (Homo sapiens) (UniProt Q16832); experiment: Inhibition of human DDR2 at 0.1 uM relative to control
# [3] = test system: Mast/stem cell growth factor receptor Kit (Homo sapiens), P10721 [T670I]; experiment: Inhibition of human KIT T670I mutant at 0.1 uM relative to control
# MV4-11 [4] = experiment: Antitumor activity against human MV4-11 cells xenografted in Harlan nude mouse assessed as tumor growth inhibition at 10 mg/kg, ig bid for 20 days relative to control; type: functional; settings: MV4-11, po, 480 h, read-out: TGI
# [5] = target: Receptor-type tyrosine-protein kinase FLT3 (Homo sapiens) (UniProt P36888); settings: 0.1 uM
# Description: Inhibition of human FLT3 at 0.1 uM relative to control
# Cytochrome P450 2D6 = Cytochrome P450 2D6 (Homo sapiens, UniProt P10635); experiment: Inhibition of microsomal CYP2D6 (unknown origin) using dextromethorphan as substrate preincubated for 5 mins followed by NADPH addition by LC-MS/MS analysis; type: ADME
# [6] = test system: Platelet-derived growth factor receptor alpha (Homo sapiens), P16234 [T674I]; experiment: Inhibition of human PDGFRalpha T674I mutant at 0.1 uM relative to control
# [7] = target: Insulin-like growth factor 1 receptor (Homo sapiens) (UniProt P08069); experiment: Inhibition of human IGF1R at 0.1 uM relative to control
# [8] = target: Receptor-type tyrosine-protein kinase FLT3 (Homo sapiens, UniProt P36888, D835Y); experiment: Inhibition of human FLT3 D835Y mutant
# [9] = target: Insulin receptor (Homo sapiens) (UniProt P06213); experiment: Inhibition of human INSR at 0.1 uM relative to control
# [10] = target: Ephrin type-B receptor 4 (Homo sapiens) (UniProt P54760); experiment: Inhibition of human EPHB4 at 0.1 uM relative to control
# [11] = target: Tyrosine-protein kinase ABL1 (Homo sapiens) (UniProt P00519); experiment: Inhibition of human ABL1 at 0.1 uM relative to control
# [12] = target: Tyrosine-protein kinase ZAP-70 (Homo sapiens) (UniProt P43403); experiment: Inhibition of human ZAP70 at 0.1 uM relative to control
# [13] = target: Serine/threonine-protein kinase PLK1 (Homo sapiens) (UniProt P53350); experiment: Inhibition of human PLK1 at 0.1 uM relative to control
# [14] = target: Vascular endothelial growth factor receptor 2 (Homo sapiens) (UniProt P35968); experiment: Inhibition of human VEGFR2 at 0.1 uM relative to control
# Jurkat = experiment: Antiproliferative activity against FLT3 negative human Jurkat cells after 72 hrs by MTS assay; type: functional, cell-based
# MOLM-13 = experiment: Antiproliferative activity against human MOLM13 cells harboring FLT3 ITD mutant after 72 hrs by MTS assay; settings: MOLM-13, 72 h
# COLO 205 = experiment: Antiproliferative activity against human COLO205 cells harboring B-Raf after 72 hrs by MTS assay; type: functional, cell-based; settings: COLO 205, 72 h
# Cytochrome P450 2C9 = Cytochrome P450 2C9 (Homo sapiens, UniProt P11712); experiment: Inhibition of microsomal CYP2C9 (unknown origin) using diclofenac as substrate preincubated for 5 mins followed by NADPH addition by LC-MS/MS analysis; type: ADME
# [15] = target: ALK tyrosine kinase receptor (Homo sapiens) (UniProt Q9UM73); experiment: Inhibition of human ALK at 0.1 uM relative to control
# LC-2-ad = experiment: Antiproliferative activity against human LC2/ad cells harboring RET after 72 hrs by MTS assay; type: functional, cell-based
# HL-60 = experiment: Antiproliferative activity against FLT3 negative human HL60 cells after 72 hrs by MTS assay; type: functional, cell-based; settings: HL-60, 72 h
# [16] = target: Epidermal growth factor receptor (Homo sapiens) (UniProt P00533); experiment: Inhibition of human EGFR at 0.1 uM relative to control
# MV4-11 [17] = experiment: Antitumor activity against human MV4-11 cells xenografted in Harlan nude mouse assessed as tumor growth inhibition at 80 mg/kg, ig bid for 20 days relative to control; type: functional; settings: MV4-11, po, 480 h, read-out: TGI
# [18] = target: Fibroblast growth factor receptor 1 (Homo sapiens) (UniProt P11362); experiment: Inhibition of human FGFR1 at 0.1 uM relative to control
# [19] = target: Cyclin-dependent kinase 2 (Homo sapiens) (UniProt P24941); experiment: Inhibition of human CDK2 at 0.1 uM relative to control
# [20] = target: Tyrosine-protein kinase Lck (Homo sapiens) (UniProt P06239); experiment: Inhibition of human LCK at 0.1 uM relative to control
# Kasumi 1 = experiment: Antiproliferative activity against human Kasumi-1 cells harboring […] after 72 hrs by MTS assay; type: functional, cell-based; settings: Kasumi 1, 72 h
# [21] = Toxicity in Harlan nude mouse xenografted with human MV4-11 cells administered ig bid for 20 days; settings: in vivo, po
# [22] = target: Aurora kinase A (Homo sapiens) (UniProt O14965); experiment: Inhibition of human Aurora A at 0.1 uM relative to control
# [23] = target: Serine/threonine-protein kinase PAK 4 (Homo sapiens) (UniProt O96013); experiment: Inhibition of human PAK4 at 0.1 uM relative to control
# Cytochrome P450 2C19 = Cytochrome P450 2C19 (Homo sapiens, UniProt P33261); experiment: Inhibition of microsomal CYP2C19 (unknown origin) using S-mephenytoin as substrate preincubated for 5 mins followed by NADPH addition by LC-MS/MS analysis; type: ADME
# Cytochrome P450 2B6 = Cytochrome P450 2B6 (Homo sapiens, UniProt P20813); experiment: Inhibition of microsomal CYP2B6 (unknown origin) using bupropion as substrate preincubated for 5 mins followed by NADPH addition by LC-MS/MS analysis; type: ADME
# [24] = test system: RAF proto-oncogene serine/threonine-protein kinase (Homo sapiens), P04049 [Y340D,Y341D]; experiment: Inhibition of human RAF1 Y340D/Y341D double mutant at 0.1 uM relative to control
# Chain of RAF proto-oncogene serine/threonine-protein kinase (Homo sapiens), P04049 [Y340D,Y341D] (P04049 whole entry Y340D/Y341D): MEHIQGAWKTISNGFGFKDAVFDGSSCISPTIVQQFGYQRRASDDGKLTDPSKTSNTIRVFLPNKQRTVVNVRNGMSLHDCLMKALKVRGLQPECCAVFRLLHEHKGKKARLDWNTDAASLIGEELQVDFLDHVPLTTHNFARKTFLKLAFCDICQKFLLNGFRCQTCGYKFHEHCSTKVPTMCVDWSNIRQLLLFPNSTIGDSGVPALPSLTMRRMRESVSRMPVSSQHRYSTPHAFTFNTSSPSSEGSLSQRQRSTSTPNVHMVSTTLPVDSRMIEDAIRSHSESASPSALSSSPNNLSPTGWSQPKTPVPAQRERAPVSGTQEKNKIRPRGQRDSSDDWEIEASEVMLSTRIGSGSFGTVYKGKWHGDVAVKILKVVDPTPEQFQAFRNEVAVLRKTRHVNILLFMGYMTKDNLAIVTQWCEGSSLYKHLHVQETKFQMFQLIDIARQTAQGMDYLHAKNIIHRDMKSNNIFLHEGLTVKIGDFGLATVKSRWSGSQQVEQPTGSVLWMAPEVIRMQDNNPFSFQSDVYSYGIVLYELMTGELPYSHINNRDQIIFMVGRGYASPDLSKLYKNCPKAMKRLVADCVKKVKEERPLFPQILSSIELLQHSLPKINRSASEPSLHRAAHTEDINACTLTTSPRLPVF
# Chain of Cytochrome P450 2D6 (P10635 whole entry): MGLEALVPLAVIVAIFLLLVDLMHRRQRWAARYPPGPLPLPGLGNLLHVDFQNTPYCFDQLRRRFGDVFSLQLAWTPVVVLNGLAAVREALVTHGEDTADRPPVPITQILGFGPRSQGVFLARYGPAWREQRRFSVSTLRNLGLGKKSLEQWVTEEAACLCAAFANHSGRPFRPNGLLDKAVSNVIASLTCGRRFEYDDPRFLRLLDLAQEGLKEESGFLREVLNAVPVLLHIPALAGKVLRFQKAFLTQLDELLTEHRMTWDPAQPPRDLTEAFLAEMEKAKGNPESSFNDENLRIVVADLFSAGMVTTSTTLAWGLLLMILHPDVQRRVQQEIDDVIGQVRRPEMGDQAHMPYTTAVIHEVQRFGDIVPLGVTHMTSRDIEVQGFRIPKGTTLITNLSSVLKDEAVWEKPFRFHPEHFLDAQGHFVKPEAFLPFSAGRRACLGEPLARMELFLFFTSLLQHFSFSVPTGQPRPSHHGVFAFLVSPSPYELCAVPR
# Chain of Discoidin domain-containing receptor 2 (Homo sapiens) (Q16832 whole entry, the tested form may be a part): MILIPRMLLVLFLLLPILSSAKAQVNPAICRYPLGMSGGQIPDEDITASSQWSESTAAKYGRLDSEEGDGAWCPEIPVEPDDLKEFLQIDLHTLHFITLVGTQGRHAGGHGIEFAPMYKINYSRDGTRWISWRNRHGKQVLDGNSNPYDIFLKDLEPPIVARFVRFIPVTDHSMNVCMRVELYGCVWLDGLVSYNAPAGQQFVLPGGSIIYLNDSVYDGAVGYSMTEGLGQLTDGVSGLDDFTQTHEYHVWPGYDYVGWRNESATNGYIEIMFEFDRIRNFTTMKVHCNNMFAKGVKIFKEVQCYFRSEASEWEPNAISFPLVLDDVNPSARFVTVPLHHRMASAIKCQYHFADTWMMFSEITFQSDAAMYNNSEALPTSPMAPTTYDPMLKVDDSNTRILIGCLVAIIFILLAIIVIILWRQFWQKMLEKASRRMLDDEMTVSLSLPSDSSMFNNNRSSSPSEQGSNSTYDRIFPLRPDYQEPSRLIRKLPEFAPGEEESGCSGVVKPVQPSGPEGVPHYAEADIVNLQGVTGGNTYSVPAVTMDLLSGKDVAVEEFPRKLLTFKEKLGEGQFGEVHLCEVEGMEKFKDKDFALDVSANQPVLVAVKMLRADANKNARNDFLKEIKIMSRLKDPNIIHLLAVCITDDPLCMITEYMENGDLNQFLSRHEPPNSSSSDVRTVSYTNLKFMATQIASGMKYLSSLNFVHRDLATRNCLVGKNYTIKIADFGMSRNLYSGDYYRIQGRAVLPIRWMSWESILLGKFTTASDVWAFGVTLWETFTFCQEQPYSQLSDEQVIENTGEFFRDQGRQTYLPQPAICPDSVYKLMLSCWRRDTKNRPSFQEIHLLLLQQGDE
# Chain of Cytochrome P450 2C9 (P11712 whole entry): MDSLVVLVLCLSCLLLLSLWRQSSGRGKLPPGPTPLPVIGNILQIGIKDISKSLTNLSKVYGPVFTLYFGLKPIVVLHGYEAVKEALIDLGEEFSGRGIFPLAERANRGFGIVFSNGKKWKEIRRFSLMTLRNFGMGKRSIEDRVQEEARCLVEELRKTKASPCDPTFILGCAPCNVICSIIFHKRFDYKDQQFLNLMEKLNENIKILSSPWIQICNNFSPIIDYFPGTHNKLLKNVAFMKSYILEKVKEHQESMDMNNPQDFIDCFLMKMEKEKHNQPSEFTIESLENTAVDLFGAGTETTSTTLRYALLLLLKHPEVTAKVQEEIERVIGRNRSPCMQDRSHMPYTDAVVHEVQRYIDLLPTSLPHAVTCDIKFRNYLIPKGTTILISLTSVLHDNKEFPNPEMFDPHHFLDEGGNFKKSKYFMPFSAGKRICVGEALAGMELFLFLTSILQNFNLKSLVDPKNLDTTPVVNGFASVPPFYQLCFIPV
# Chain of Vascular endothelial growth factor receptor 2 (Homo sapiens) (P35968 whole entry): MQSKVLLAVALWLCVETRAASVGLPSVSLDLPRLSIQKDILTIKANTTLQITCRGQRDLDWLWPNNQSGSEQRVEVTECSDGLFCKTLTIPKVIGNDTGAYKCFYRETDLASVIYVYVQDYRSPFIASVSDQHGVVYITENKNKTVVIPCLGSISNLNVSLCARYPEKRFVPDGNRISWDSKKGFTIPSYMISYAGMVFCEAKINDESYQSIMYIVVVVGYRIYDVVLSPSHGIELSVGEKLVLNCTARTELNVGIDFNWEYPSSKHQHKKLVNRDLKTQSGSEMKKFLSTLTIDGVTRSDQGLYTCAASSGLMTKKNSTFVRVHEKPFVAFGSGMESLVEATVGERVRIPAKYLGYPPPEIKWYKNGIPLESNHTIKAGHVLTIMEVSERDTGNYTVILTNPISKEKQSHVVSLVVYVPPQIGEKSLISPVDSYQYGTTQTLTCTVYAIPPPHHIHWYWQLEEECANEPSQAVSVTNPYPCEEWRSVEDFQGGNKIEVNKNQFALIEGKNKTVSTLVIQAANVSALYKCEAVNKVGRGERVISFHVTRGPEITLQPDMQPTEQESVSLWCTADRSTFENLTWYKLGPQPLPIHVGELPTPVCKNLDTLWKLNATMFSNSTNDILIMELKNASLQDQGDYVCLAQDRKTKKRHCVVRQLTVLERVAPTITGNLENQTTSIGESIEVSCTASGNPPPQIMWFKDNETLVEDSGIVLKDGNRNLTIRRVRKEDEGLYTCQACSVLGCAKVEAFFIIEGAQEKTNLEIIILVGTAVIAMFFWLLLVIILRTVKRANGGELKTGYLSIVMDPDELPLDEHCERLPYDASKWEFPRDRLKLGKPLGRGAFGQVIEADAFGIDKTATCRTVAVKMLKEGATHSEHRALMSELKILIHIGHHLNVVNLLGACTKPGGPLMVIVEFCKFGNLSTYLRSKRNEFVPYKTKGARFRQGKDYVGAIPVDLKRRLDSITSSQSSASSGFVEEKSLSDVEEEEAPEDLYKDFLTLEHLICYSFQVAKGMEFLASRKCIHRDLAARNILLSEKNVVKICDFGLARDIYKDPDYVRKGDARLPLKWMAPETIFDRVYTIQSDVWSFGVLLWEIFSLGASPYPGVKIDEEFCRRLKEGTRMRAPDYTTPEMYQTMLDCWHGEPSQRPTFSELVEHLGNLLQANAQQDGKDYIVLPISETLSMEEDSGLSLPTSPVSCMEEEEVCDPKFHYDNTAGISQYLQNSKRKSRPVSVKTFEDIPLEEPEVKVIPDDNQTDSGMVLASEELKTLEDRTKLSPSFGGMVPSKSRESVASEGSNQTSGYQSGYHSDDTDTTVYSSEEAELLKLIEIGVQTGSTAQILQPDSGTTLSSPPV
# Chain of Serine/threonine-protein kinase B-raf (Homo sapiens) (P15056 whole entry, the tested form may be a part): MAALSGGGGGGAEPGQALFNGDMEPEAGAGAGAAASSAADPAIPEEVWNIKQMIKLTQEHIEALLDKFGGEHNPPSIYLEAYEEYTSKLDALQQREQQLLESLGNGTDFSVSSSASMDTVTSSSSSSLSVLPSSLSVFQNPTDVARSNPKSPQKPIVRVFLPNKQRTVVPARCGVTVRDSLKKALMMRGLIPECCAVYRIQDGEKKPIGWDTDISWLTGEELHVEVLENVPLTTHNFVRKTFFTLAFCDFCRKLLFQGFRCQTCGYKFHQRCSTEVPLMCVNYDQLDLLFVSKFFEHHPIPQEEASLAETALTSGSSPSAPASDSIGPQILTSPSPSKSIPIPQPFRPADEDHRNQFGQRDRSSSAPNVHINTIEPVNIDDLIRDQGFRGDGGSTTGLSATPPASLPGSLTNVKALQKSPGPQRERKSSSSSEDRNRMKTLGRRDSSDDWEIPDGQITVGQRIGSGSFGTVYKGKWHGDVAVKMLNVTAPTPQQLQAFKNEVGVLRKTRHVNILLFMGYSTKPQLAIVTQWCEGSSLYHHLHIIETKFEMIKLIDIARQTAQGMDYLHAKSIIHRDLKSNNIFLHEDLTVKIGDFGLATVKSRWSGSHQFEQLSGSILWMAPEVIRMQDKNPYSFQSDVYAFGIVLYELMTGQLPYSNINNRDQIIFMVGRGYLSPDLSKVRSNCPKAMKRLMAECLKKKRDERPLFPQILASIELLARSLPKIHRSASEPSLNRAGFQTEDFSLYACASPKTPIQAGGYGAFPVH
# Chain of Aurora kinase A (Homo sapiens) (O14965 whole entry): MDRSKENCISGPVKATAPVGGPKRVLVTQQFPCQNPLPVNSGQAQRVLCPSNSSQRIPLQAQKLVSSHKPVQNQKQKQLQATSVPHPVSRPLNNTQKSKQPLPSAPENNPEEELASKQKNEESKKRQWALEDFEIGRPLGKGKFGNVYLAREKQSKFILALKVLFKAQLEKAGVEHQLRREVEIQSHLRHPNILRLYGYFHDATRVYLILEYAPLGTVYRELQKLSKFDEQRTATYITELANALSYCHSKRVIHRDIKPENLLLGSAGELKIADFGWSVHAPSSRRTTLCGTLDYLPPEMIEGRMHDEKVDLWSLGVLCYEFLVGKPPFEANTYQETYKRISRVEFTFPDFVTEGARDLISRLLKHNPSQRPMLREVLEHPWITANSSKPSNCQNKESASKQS
smiles,measurement,setting,value
Cc1[nH]c(/C=C2\C(=O)Nc3ccc(F)cc32)c(C)c1NC(=O)[C@H]1CCCN1.Cl,inhibition,[1],0%
same,inhibition,[2],7%
same,inhibition,[3],77%
same,inhibition in vivo at 10 mg/kg,MV4-11 [4],88.7%
same,inhibition,[5],95%
same,pIC50,Cytochrome P450 2D6,< 4.48
same,inhibition,[6],98%
same,inhibition,[7],13%
same,pIC50,[8],8.57
same,inhibition,[9],16%
same,inhibition,[10],-4%
same,inhibition,[11],20%
same,inhibition,[12],0%
same,inhibition,[13],-3%
same,inhibition,[14],38%
same,pIC50,Jurkat,5.38
same,pIC50,MOLM-13,7.63
same,pIC50,COLO 205,5.18
same,pIC50,Cytochrome P450 2C9,< 4.48
same,inhibition,[15],63%
same,pIC50,LC-2-ad,6.21
same,pIC50,HL-60,5.19
same,inhibition,[16],-1%
same,inhibition in vivo at 80 mg/kg,MV4-11 [17],98.9%
same,inhibition,[18],27%
same,inhibition,[19],8%
same,inhibition,[20],43%
same,pIC50,Kasumi 1,6.60
same,MTD at 480 h,[21],160 mg/kg/day
same,inhibition,[22],2%
same,inhibition,[23],14%
same,pIC50,Cytochrome P450 2C19,< 4.48
same,pIC50,Cytochrome P450 2B6,< 4.48
same,inhibition,[24],18%
